# From publication PMC3920478, “Small molecule-mediated refolding and activation of myosin motor function” (eLife, 2014)
# Entries after “also recorded” stand apart in the source; their conditions may differ.
# Key:
# Dd myosin-2 motor domain = target: T1, Dd myosin-2 motor domain (Dictyostelium discoideum, UniProt P08799); assay: Microscale thermophoresis direct binding; details: 100 nM, read-out: Binding affinity (MST), KD
# T1 sequence (P08799 1-761 limits assumed): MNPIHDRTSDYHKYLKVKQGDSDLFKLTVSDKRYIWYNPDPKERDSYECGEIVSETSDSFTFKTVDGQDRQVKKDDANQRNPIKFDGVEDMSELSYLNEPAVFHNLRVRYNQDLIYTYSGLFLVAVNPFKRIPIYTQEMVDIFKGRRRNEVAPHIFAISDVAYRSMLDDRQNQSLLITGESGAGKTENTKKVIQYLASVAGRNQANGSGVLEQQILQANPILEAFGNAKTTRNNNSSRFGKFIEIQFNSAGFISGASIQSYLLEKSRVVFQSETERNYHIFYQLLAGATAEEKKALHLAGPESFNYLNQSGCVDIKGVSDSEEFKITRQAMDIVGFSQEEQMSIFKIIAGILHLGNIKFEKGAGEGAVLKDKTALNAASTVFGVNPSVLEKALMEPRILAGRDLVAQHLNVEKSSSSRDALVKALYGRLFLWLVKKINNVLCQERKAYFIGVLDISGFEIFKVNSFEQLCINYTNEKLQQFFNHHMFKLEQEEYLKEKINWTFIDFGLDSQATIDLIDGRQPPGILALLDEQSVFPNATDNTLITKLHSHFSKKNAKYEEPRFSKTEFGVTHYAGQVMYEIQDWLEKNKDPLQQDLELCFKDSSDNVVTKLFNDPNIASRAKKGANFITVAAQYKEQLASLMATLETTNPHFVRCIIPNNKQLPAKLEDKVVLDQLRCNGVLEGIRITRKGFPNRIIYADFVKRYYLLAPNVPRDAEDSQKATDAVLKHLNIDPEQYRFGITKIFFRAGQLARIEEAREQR
# Text: (§1) Proteolytic fragments were further purified by actin-coprecipitation.
# [1] = system: neonatal rat cardiomyocytes (NRCM); assay: Neonatal rat cardiomyocytes: cell size, MHC and ANP expression at 37°C or 42°C; format: cell-based; details: 10 µM, 24 hr
# Method: Cell culture media, fetal bovine serum (FBS), and horse serum (HS) were purchased from Biochrome (Berlin, Germany); all other chemicals were from Sigma-Aldrich (St Louis, MO). Isolation of neonatal rat cardiomyocytes (NRCM) was performed by enzymatic digestion of neonatal rat hearts as described previously ([Hilfiker-Kleiner et al., 2004]). NRCM were cultured in plating medium containing 5% FBS and 10% HS for 24 hr followed by serum-starvation for 48 hr. NRCM were cultured in serum-free medium containing either EMD (10 µM) or the corresponding volume of the solvent DMSO (1 µl/ ml) for additional 24 hr at 37°C or 42°C with 5% CO2.
# For indirect immunofluorescence NRCM were fixed with 95% ethanol. Monoclonal antibodies against sarcomeric α-actinin (1:50; Sigma-Aldrich) or sarcomeric Myosin heavy chain (1:50; Santa Cruz Biotechnology, Dallas, TX) were used. Fluor-488 goat anti-mouse IgG (1:250; Jackson ImmunoResearch, West Grove, PA) or Alexa Fluor 639 goat anti-rabbit (1:250; Jackson ImmunoResearch) was employed as secondary antibody. Immunofluorescence was detected by the use of the AxioVison Rel 4.1 package (Carl Zeiss GmbH).
# Realtime measurement of PCR amplification was performed using the Stratagene MX4000 multiplex QPCR System with the SYBR green dye method (Brilliant SYBR Green Mastermix-Kit, Stratagene, La Jolla, CA) as described ([Hilfiker-Kleiner et al., 2010]; [Hoch et al., 2011]). Total RNA was extracted from NRCM using Trizol reagent according to the manufactures protocol (Invitrogen, Carlsbad, CA). Reverse transcriptase (RT)-PCR was performed of ANP and b2m using 2 μg of total RNA. The primer sequences and PCR conditions are described in Table 3. PCR products were size-fractionated by 2% agarose gel electrophoresis.
# Protein expression in NRCM was determined by standard immunoblotting techniques under denaturing conditions, as described previously ([Hilfiker-Kleiner et al., 2004]). A monoclonal primary antibody against sarcomeric MHC (1:1.000; Abcam, Cambridge, UK) was used and signal detection was achieved by the usage of a horseradish peroxydase-conjugated secondary antibody (GE) and ECL-detection. PonceauS staining was carried out and used as a loading control.
# [2] = target: T2, Dd myosin-5b motor domain (Dictyostelium discoideum, UniProt P54697); assay: Steady-state basal and actin-activated Mg2+-ATPase (NADH-coupled assay); format: biochemical
# T2 construct: Dd myosin-5b motor domain; His tag; made in house; host or cells: Dictyostelium discoideum AX3-ORF+ cells
# T2 sequence (P54697 1-821 limits assumed): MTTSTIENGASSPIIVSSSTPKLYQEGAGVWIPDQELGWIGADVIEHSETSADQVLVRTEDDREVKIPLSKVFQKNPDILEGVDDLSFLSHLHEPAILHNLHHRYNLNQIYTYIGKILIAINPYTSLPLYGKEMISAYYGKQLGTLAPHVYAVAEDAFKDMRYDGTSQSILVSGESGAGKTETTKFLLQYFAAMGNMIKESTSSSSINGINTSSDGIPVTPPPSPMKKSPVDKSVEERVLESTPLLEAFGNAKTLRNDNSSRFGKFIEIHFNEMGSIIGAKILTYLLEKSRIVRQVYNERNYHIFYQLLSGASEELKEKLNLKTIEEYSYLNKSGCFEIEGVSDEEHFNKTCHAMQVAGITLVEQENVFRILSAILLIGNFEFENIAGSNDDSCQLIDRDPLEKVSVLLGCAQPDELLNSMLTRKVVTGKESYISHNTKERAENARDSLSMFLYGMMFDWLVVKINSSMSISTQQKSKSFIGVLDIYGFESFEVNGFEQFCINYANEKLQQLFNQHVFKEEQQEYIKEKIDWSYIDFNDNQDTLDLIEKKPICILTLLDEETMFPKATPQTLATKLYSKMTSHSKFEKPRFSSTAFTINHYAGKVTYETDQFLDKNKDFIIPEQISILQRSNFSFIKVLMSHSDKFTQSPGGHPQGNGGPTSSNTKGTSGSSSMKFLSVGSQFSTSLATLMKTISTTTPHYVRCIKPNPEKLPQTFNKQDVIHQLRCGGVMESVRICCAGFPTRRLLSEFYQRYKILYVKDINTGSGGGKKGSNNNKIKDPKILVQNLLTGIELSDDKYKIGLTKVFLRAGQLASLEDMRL
# Method: as §1
# Basal and actin-activated Mg^2+-ATPase activities were measured using the NADH-coupled assay described previously ([Furch et al., 1998]) adapted for higher throughput screens for a temperature controlled plate reader (Multiscan FC, Thermo Scientific, Waltham, MA) at 25°C. EMD 57033 was added to the reaction mixture in the absence of nucleotide and incubated before the reaction was started by the addition of ATP. Control measurements were carried out in the absence of drug, as well as in the presence of according concentrations of the non-binding (−)-enantiomer EMD 57439 to account for possible absorption effects. […] Data points are mean values from 3 to 5 independent experiments. Error bars indicate standard deviations.
compound,measurement,setting,value
COc1ccc(C(=O)N2CCCc3cc(C4=NNC(=O)SC4C)ccc32)cc1OC (centres unmarked) [EMD 57033],Kd,Dd myosin-2 motor domain,23 µM
same,ANP mRNA expression,[1]; 37°C,not significantly changed; also recorded: does not affect expression of ANP mRNA
same,Total cardiac MHC protein content,[1]; 37°C or 42°C,without significant changes in total cardiac MHC protein content; also recorded: does not significantly alter MHC protein levels
same,β-cardiac MHC mRNA expression,"[1]; 37°C, vs DMSO",reduction in β-cardiac MHC transcripts; also recorded: significantly reduces
same,ANP mRNA expression induced by hyperthermic stress,[1]; 42°C,completely suppressed; also recorded: fully suppressed
same,β-cardiac MHC mRNA downregulation,[1]; 42°C,significantly more pronounced
same,α-cardiac MHC mRNA expression,[1]; vs DMSO,without significant changes; also recorded: does not alter α-cardiac MHC mRNA expression
same,AC50,[2],35.4 µM
same,Activation potency relative to β-cardiac myosin (weaker),[2],fivefold
same,Normalized maximal ATPase activation (basal),[2],1.4
same,Normalized maximal ATPase activation (with 30 µM actin),[2]; 30 µM actin,1.6
